Laboratory results as given in patent US10414811B2, “Protease-resistant lipidated GLP-1 analogs” (MEDIMMUNE LIMITED, priority 2015, dated 2019).
pEC50: −log10 of the molar value. Read-outs that look alike come from different tables or passages of the source. Numbered stars: 1 amine (or outer) side, 2 acyl side, 3 side chain; on linkers, the order of the positions; unused ones are H or OH. Square brackets hold non-standard residues; d marks the D form. Side chains are listed from the residue outwards. Peptide text beside a SMILES is read from it. * marks the point of attachment. γGlu = O=C(O)[C@H](CCC(=O)[*:2])N[*:1]; αMeF = C[C@](N)(Cc1ccccc1)C(=O)O; αMeK = C[C@](N)(CCCCN)C(=O)O; Lauroyl = CCCCCCCCCCCC(=O)*; αMeS = C[C@](N)(CO)C(=O)O; AEEA = NCCOCCOCC(=O)O; Aib = CC(C)(N)C(=O)O

Experiments:
Type in all cases: cell-based
[1] = biological target: T1, human GLP-1 receptor (GLP-1R) (Homo sapiens, UniProt P43220); assay: cAMP assay, human GLP-1R cells; conditions: tris-lipidated peptides; for EC50: mean of n1 and n2, read-out: Primary assay EC50 Mean pM GLP-1R
T1 construct: expressed in transfected cells
Summary of the method: (§1)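 Peptide-stimulated cAMP measured by two-step HTRF after a 30 min room-temperature incubation with receptor-expressing cells (hGLP-1R, hGIPR at 1×10^5 cells/ml; hGCGR at 2×10^5 cells/ml). Duplicate dilutions; EC50 from 4-parameter logistic fit of % Delta F.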

[2] = biological target: T2, human glucagon receptor (GCGR) (Homo sapiens, UniProt P47871); assay: cAMP assay, human GCGR cells; conditions: tris-lipidated peptides
T2 construct: expressed in transfected cells
Summary of the method: as §1

[3] = biological target: T3, human glucose-dependent insulinotropic peptide receptor (GIPR) (Homo sapiens, UniProt P48546); assay: cAMP assay, human GIPR cells; conditions: tris-lipidated peptides
T3 construct: expressed in transfected cells
T3 sequence (P48546 22-466): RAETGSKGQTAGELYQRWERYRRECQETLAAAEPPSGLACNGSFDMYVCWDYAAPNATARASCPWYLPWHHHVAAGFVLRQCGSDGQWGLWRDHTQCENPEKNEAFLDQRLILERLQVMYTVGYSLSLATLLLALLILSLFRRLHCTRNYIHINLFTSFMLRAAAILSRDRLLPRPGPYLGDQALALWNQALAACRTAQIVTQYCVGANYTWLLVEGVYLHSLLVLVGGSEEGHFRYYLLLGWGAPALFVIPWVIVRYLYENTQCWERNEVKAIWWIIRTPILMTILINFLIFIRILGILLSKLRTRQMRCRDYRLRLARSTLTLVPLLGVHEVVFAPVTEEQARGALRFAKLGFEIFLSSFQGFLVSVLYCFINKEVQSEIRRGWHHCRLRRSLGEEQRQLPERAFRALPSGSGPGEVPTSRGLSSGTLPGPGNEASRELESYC
Summary of the method: as §1

[4] = replicate n1, read-out: Primary assay EC50 GLP-1R n1
[5] = replicate n2, read-out: Primary assay EC50 GLP-1R n2
[6] = second replicate, read-out: Primary assay EC50 Gluc-R (n2)
[7] = first replicate, read-out: Primary assay EC50 GIP-R (n1)
[8] = first replicate, read-out: Primary assay EC50 Gluc-R (n1)

T1 sequence (P43220 24-463): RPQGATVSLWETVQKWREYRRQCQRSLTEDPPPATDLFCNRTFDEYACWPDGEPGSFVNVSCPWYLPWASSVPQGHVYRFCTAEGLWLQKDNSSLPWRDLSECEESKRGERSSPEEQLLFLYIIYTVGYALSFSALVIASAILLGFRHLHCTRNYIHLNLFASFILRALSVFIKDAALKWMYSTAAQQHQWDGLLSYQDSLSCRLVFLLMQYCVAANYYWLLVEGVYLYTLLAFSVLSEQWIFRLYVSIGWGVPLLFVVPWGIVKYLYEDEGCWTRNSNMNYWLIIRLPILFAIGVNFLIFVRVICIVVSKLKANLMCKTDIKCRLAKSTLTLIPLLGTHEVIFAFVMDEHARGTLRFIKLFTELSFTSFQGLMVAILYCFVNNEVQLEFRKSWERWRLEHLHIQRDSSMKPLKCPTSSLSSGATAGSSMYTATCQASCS
T2 sequence (P47871 26-477): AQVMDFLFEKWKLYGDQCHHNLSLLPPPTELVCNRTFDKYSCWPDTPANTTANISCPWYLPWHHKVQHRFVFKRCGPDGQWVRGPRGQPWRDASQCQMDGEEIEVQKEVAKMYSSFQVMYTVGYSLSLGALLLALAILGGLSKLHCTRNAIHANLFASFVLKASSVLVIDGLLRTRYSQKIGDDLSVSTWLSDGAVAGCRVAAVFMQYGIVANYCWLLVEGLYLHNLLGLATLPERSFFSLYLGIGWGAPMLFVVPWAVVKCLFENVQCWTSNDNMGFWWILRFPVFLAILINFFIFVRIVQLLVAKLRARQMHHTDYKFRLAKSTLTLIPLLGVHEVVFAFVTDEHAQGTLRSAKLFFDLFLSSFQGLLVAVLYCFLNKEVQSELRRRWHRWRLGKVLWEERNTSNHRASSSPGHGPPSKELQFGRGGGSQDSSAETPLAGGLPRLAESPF

SMILES	EC50 [1] [pM]	pEC50 [1, 4]	pEC50 [1, 5]	pEC50 [2, 6]	pEC50 ([3]; second replicate, read-out: Primary assay EC50 GIP-R (n2))	pEC50 [3, 7]	pEC50 [2, 8]
CCCCCCCCCCCC(=O)N[C@@H](CCC(=O)NCCOCCOCC(=O)NCCOCCOCC(=O)NCCCC[C@H](NC(=O)[C@H](CCC(=O)O)NC(=O)CNC(=O)[C@H](CCC(=O)O)NC(=O)[C@H](CC(C)C)NC(=O)[C@H](Cc1ccc(O)cc1)NC(=O)[C@H](CO)NC(=O)[C@H](CO)NC(=O)[C@H](CCCCNC(=O)COCCOCCNC(=O)COCCOCCNC(=O)CC[C@H](NC(=O)CCCCCCCCCCC)C(=O)O)NC(=O)[C@H](CC(=O)O)NC(=O)[C@H](CO)NC(=O)[C@@H](NC(=O)[C@](C)(Cc1ccccc1)NC(=O)[C@H](CO)NC(=O)CNC(=O)[C@H](CCC(=O)O)NC(=O)C(C)(C)NC(=O)[C@@H](N)Cc1c[nH]cn1)[C@@H](C)O)C(=O)N[C@@H](C)C(=O)N[C@@](C)(CCCCN)C(=O)N[C@@H](CCC(=O)O)C(=O)N[C@@H](Cc1ccccc1)C(=O)N[C@H](C(=O)N[C@@H](CCCCNC(=O)COCCOCCNC(=O)COCCOCCNC(=O)CC[C@H](NC(=O)CCCCCCCCCCC)C(=O)O)C(=O)N[C@@H](Cc1ccccc1)C(=O)N[C@H](C(=O)N[C@H](C(=O)N[C@@H](CCC(=O)O)C(=O)NCC(=O)NCC(N)=O)C(C)C)C(C)C)[C@@H](C)CC)C(=O)O [compound 441] (H-H[Aib]EGS[αMeF]TSDK([AEEA-AEEA-γGlu-Lauroyl])SSYLEGEK([AEEA-AEEA-γGlu-Lauroyl])A[αMeK]EFIK([AEEA-AEEA-γGlu-Lauroyl])FVVEGG-NH2)	176	9.96	9.62	7.71	7.71	–	–
CCCCCCCCCCCC(=O)N[C@@H](CCC(=O)NCCOCCOCC(=O)NCCOCCOCC(=O)NCCCC[C@H](NC(=O)[C@H](CCC(=O)O)NC(=O)[C@H](CC(C)C)NC(=O)[C@H](CCCCNC(=O)COCCOCCNC(=O)COCCOCCNC(=O)CC[C@H](NC(=O)CCCCCCCCCCC)C(=O)O)NC(=O)[C@H](CO)NC(=O)[C@](C)(CO)NC(=O)[C@@H](NC(=O)[C@H](CC(=O)O)NC(=O)[C@H](CO)NC(=O)[C@@H](NC(=O)[C@](C)(Cc1ccccc1)NC(=O)[C@H](CO)NC(=O)CNC(=O)[C@H](CCC(=O)O)NC(=O)C(C)(C)NC(=O)[C@@H](N)Cc1c[nH]cn1)[C@@H](C)O)C(C)C)C(=O)N[C@@H](CCC(=O)O)C(=O)N[C@@H](C)C(=O)N[C@@H](C)C(=O)N[C@@](C)(CCCCN)C(=O)N[C@@H](CCC(=O)O)C(=O)N[C@@H](Cc1ccccc1)C(=O)N[C@H](C(=O)N[C@@H](CCCCNC(=O)COCCOCCNC(=O)COCCOCCNC(=O)CC[C@H](NC(=O)CCCCCCCCCCC)C(=O)O)C(=O)N[C@@H](Cc1ccccc1)C(=O)N[C@H](C(=O)N[C@H](C(=O)N[C@@H](CCC(=O)O)C(=O)NCC(=O)NCC(N)=O)C(C)C)C(C)C)[C@@H](C)CC)C(=O)O [compound 447] (H-H[Aib]EGS[αMeF]TSDV[αMeS]SK([AEEA-AEEA-γGlu-Lauroyl])LEK([AEEA-AEEA-γGlu-Lauroyl])EAA[αMeK]EFIK([AEEA-AEEA-γGlu-Lauroyl])FVVEGG-NH2; N-terminus assumed)	150	9.91	9.75	–	–	7.71	7.71
CCCCCCCCCCCC(=O)N[C@@H](CCC(=O)NCCOCCOCC(=O)NCCOCCOCC(=O)NCCCC[C@H](NC(=O)[C@H](CCC(=O)O)NC(=O)CNC(=O)[C@H](CCC(=O)O)NC(=O)[C@H](CC(C)C)NC(=O)[C@H](CCCCNC(=O)COCCOCCNC(=O)COCCOCCNC(=O)CC[C@H](NC(=O)CCCCCCCCCCC)C(=O)O)NC(=O)[C@H](CO)NC(=O)[C@](C)(CO)NC(=O)[C@@H](NC(=O)[C@H](CC(=O)O)NC(=O)[C@H](CO)NC(=O)[C@@H](NC(=O)[C@](C)(Cc1ccccc1)NC(=O)[C@H](CO)NC(=O)CNC(=O)[C@H](CCC(=O)O)NC(=O)C(C)(C)NC(=O)[C@@H](N)Cc1c[nH]cn1)[C@@H](C)O)C(C)C)C(=O)N[C@@H](C)C(=O)N[C@@](C)(CCCCN)C(=O)N[C@@H](CCC(=O)O)C(=O)N[C@@H](Cc1ccccc1)C(=O)N[C@H](C(=O)N[C@@H](CCCCNC(=O)COCCOCCNC(=O)COCCOCCNC(=O)CC[C@H](NC(=O)CCCCCCCCCCC)C(=O)O)C(=O)N[C@@H](Cc1ccccc1)C(=O)N[C@H](C(=O)N[C@H](C(=O)N[C@@H](CCC(=O)O)C(=O)NCC(=O)NCC(N)=O)C(C)C)C(C)C)[C@@H](C)CC)C(=O)O [compound 449] (H-H[Aib]EGS[αMeF]TSDV[αMeS]SK([AEEA-AEEA-γGlu-Lauroyl])LEGEK([AEEA-AEEA-γGlu-Lauroyl])A[αMeK]EFIK([AEEA-AEEA-γGlu-Lauroyl])FVVEGG-NH2; N-terminus assumed)	246	9.67	9.56	–	–	7.71	7.71

Now those with a lower EC50 [1], led by results:

EC50 [1] [pM]	pEC50 [1, 4]	pEC50 [1, 5]	pEC50 [2, 6]	pEC50 ([3]; second replicate, read-out: Primary assay EC50 GIP-R (n2))	pEC50 [3, 7]	pEC50 [2, 8]	SMILES
92.4	10.10	9.97	7.70	–	7.70	–	CCCCCCCCCCCC(=O)N[C@@H](CCC(=O)NCCOCCOCC(=O)NCCOCCOCC(=O)NCCCC[C@H](NC(=O)CNC(=O)[C@H](CCC(=O)O)NC(=O)[C@H](CC(C)C)NC(=O)[C@H](CCCCNC(=O)COCCOCCNC(=O)COCCOCCNC(=O)CC[C@H](NC(=O)CCCCCCCCCCC)C(=O)O)NC(=O)[C@H](CO)NC(=O)[C@](C)(CO)NC(=O)[C@@H](NC(=O)[C@H](CC(=O)O)NC(=O)[C@H](CO)NC(=O)[C@@H](NC(=O)[C@](C)(Cc1ccccc1)NC(=O)[C@H](CO)NC(=O)CNC(=O)[C@H](CCC(=O)O)NC(=O)C(C)(C)NC(=O)[C@@H](N)Cc1c[nH]cn1)[C@@H](C)O)C(C)C)C(=O)N[C@@H](C)C(=O)N[C@@H](C)C(=O)N[C@@](C)(CCCCN)C(=O)N[C@@H](CCC(=O)O)C(=O)N[C@@H](Cc1ccccc1)C(=O)N[C@H](C(=O)N[C@@H](CCCCNC(=O)COCCOCCNC(=O)COCCOCCNC(=O)CC[C@H](NC(=O)CCCCCCCCCCC)C(=O)O)C(=O)N[C@@H](Cc1ccccc1)C(=O)N[C@H](C(=O)N[C@H](C(=O)N[C@@H](CCC(=O)O)C(=O)NCC(=O)NCC(N)=O)C(C)C)C(C)C)[C@@H](C)CC)C(=O)O [compound 448] (H-H[Aib]EGS[αMeF]TSDV[αMeS]SK([AEEA-AEEA-γGlu-Lauroyl])LEGK([AEEA-AEEA-γGlu-Lauroyl])AA[αMeK]EFIK([AEEA-AEEA-γGlu-Lauroyl])FVVEGG-NH2)
82	10.22	9.99	7.71	–	7.71	–	CCCCCCCCCCCC(=O)N[C@@H](CCC(=O)NCCOCCOCC(=O)NCCOCCOCC(=O)NCCCC[C@H](NC(=O)[C@H](CC(=O)O)NC(=O)[C@H](CO)NC(=O)[C@@H](NC(=O)[C@](C)(Cc1ccccc1)NC(=O)[C@H](CO)NC(=O)CNC(=O)[C@H](CCC(=O)O)NC(=O)C(C)(C)NC(=O)[C@@H](N)Cc1c[nH]cn1)[C@@H](C)O)C(=O)N[C@@H](CO)C(=O)N[C@@H](CO)C(=O)N[C@@H](Cc1ccc(O)cc1)C(=O)N[C@@H](CC(C)C)C(=O)N[C@@H](CCC(=O)O)C(=O)NCC(=O)N[C@@H](CCC(=O)O)C(=O)N[C@@H](C)C(=O)N[C@@H](C)C(=O)N[C@@](C)(CCCCN)C(=O)N[C@@H](CCCCNC(=O)COCCOCCNC(=O)COCCOCCNC(=O)CC[C@H](NC(=O)CCCCCCCCCCC)C(=O)O)C(=O)N[C@@H](Cc1ccccc1)C(=O)N[C@H](C(=O)N[C@@H](CCCCNC(=O)COCCOCCNC(=O)COCCOCCNC(=O)CC[C@H](NC(=O)CCCCCCCCCCC)C(=O)O)C(=O)N[C@@H](Cc1ccccc1)C(=O)N[C@H](C(=O)N[C@H](C(=O)N[C@@H](CCC(=O)O)C(=O)NCC(=O)NCC(N)=O)C(C)C)C(C)C)[C@@H](C)CC)C(=O)O [compound 442] (H-H[Aib]EGS[αMeF]TSDK([AEEA-AEEA-γGlu-Lauroyl])SSYLEGEAA[αMeK]K([AEEA-AEEA-γGlu-Lauroyl])FIK([AEEA-AEEA-γGlu-Lauroyl])FVVEGG-NH2; N-terminus assumed)
